In ChEMBL document CHEMBL1201862, “PubChem BioAssay data set” (2004):
Calls of active or inactive are those of the source.

Tests used:
[1] = blockers of HIV-1 ZM109 envelope-driven cell-cell fusion – HeLa effector, CEM target cells, luciferase, cherry-pick, dose response (AID 652058); assay type: functional, cell-based;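 also: luciferase signal from HIV-1 Env mediated cell-cell fusion of effector and target cells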
[2] = general cell-killing toxicity readout – plate reader, dry powder samples, cytotoxicity control for PAX8 inhibitor project, dose response (AID 743021); assay type: functional, cell-based
[3] = molecular target: T1, Microphthalmia-associated transcription factor (Homo sapiens, UniProt O75030); assay: reducers of TRPM1 reporter luminescence, concentration series – cell-based, SK-MEL-5, cherry-picked, set 3, MITF inhibitor project, dose response (AID 493073); assay type: functional;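 also: SK-MEL-5 melanoma cells with luciferase driven by the MITF target TRPM1 promoter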
T1 sequence (O75030 whole entry): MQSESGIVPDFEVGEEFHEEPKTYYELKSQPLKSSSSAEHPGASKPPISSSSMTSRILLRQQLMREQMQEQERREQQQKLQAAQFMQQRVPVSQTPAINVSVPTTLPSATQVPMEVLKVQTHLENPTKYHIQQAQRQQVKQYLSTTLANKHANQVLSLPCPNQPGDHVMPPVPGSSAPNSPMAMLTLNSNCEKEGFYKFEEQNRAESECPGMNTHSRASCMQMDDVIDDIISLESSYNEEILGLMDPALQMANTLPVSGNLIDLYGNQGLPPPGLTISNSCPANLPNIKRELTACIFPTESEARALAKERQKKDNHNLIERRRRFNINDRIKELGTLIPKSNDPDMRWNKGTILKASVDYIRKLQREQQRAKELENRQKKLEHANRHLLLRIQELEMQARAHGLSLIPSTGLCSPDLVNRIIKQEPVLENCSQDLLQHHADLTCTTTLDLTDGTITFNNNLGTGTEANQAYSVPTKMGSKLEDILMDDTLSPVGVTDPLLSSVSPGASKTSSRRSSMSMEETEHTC

[4] = blockers of bursicon-stimulated LGR2 cAMP reporter – cell-based, HEK293, CRE-luciferase reporter, cherry pick, set 2, dose response (AID 743343); assay type: functional;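 also: transfected cells were stimulated with diluted bursicon conditioned medium after compound addition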
[5] = molecular target: FAD-linked sulfhydryl oxidase ALR (Homo sapiens, UniProt P55789); assay: ALR-catalysed DTT oxidation blockers – biochemical, H2O2 detection, luminescence, cherry-pick, dose response (AID 493248)
[6] = HIV-1 AD8 envelope cell-cell fusion blockers – cherry-pick, dose response (AID 652062); assay type: functional, cell-based;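 also: luciferase signal from cell-cell fusion driven by HIV-1 clade B AD8 Env; potency is for inhibitors of fusion seen as a drop in luminescence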
[7] = blockade of melanocortin 4 receptor signaling – cell-based, plate reader, cherry pick, counter-screen for LGR2 antagonist project, dose response (AID 743444); assay type: functional;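 also: transfected HEK 293 cells stimulated with alpha-MSH peptide; potency of inhibitors of the alpha-MSH evoked signal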
[8] = off-target signal loss in HeLa-CEM21 co-culture – HeLa F-luc CTL cells, cherry-picked, counter-screen for HIV-1 Env fusion inhibitor project, dose response (AID 652040); assay type: functional, cell-based;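 also: potency for signal decrease marking cytotoxic or nonspecific inhibition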
[9] = Luminescence-based counterscreen assay for KLF5 inhibitors: dose response cell-based high throughput screening assay to identify cytotoxic compounds using the IEC-6 intestinal epithelial cell line. [Related pubchem assays: 1700 (Primary screen.), 1834 (Confirmation screen.), 1858 (Summary AID.), 1905 (Counterscreen.)]; assay type: functional
Paired box protein Pax-8 = Paired box protein Pax-8 (Homo sapiens, UniProt Q06710); assay: PAX8 transcriptional activity inhibition in RMG-I – RMG-I cells, luciferase, cherry-pick, dose response (AID 687027); assay type: functional, cell-based;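 also: luciferase reporter driven by Pax8 target thyroperoxidase promoter measured by SteadyGlo luminescence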
HeLa = assay: viability loss in HeLa cells – cell-based, 24 h, cherry-picked samples, cytotoxicity control, dose response (AID 504726); assay type: functional; conditions: Homo sapiens;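 also: potency for cytotoxicity as loss of luminescence signal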
Aminopeptidase N = molecular target: T2, Aminopeptidase N (Plasmodium falciparum FcB1/Columbia, UniProt O96935); assay: malaria alanyl aminopeptidase activity blockers – biochemical, fluorogenic H-Leu-NHMec substrate, 1536-well (AID 1445); parameters: species or system Plasmodium falciparum 3D7, 3D7
T2 sequence (O96935 whole entry): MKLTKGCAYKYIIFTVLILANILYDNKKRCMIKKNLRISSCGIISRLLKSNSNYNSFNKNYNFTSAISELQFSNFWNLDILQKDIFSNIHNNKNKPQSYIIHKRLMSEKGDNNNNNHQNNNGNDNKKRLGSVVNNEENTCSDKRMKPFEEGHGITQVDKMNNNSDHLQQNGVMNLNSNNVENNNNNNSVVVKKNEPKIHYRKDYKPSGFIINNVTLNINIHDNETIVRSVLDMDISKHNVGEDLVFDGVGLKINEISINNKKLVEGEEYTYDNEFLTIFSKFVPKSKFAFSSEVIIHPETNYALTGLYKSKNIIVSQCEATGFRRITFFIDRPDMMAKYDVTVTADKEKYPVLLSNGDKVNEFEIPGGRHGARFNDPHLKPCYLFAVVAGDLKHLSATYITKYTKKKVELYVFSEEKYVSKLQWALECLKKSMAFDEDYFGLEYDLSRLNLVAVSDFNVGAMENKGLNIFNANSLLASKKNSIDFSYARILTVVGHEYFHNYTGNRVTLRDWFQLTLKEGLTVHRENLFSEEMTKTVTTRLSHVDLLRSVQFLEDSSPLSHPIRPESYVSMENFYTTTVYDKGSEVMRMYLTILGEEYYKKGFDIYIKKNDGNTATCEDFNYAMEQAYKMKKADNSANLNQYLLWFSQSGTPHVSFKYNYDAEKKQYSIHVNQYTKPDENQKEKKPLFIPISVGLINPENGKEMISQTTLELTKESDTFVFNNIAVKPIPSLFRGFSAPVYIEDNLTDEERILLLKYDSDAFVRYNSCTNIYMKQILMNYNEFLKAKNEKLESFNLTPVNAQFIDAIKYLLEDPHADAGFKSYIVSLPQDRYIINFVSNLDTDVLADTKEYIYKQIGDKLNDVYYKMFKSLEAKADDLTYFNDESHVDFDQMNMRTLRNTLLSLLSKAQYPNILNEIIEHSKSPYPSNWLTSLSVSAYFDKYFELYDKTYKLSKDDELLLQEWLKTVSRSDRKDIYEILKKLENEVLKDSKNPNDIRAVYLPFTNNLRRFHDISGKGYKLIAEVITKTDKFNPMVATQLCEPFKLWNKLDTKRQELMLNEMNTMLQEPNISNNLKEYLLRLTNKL

[10] = blockers of HIV-1 envelope-mediated cell-cell fusion – cherry-pick, dose response (AID 652057); assay type: functional, cell-based
[11] = viability loss in HEK293 cells – cell-based, plate reader, cherry-picked samples, cytotoxicity control, dose response (AID 743446); assay type: functional
[12] = molecular target: T3, Sentrin-specific protease 8 (Homo sapiens, UniProt Q96LD8); assay type: functional;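 also: luminescence read-out of SENP8 inhibition, dose-response confirmation following an ultra-high-throughput screen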
T3 sequence (Q96LD8 whole entry): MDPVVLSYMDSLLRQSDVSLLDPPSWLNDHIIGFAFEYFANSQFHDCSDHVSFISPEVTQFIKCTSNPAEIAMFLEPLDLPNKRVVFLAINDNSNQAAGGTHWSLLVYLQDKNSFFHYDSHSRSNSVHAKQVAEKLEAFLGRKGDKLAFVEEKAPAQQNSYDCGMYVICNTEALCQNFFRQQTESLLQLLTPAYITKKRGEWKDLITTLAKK

[13] = molecular target: T4, Sentrin-specific protease 7 (Homo sapiens, UniProt Q9BQF6); assay type: functional;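 also: Luminescence-based dose-response confirmation of ultra-high-throughput screening hits, measuring inhibition of SENP7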
T4 sequence (Q9BQF6 whole entry): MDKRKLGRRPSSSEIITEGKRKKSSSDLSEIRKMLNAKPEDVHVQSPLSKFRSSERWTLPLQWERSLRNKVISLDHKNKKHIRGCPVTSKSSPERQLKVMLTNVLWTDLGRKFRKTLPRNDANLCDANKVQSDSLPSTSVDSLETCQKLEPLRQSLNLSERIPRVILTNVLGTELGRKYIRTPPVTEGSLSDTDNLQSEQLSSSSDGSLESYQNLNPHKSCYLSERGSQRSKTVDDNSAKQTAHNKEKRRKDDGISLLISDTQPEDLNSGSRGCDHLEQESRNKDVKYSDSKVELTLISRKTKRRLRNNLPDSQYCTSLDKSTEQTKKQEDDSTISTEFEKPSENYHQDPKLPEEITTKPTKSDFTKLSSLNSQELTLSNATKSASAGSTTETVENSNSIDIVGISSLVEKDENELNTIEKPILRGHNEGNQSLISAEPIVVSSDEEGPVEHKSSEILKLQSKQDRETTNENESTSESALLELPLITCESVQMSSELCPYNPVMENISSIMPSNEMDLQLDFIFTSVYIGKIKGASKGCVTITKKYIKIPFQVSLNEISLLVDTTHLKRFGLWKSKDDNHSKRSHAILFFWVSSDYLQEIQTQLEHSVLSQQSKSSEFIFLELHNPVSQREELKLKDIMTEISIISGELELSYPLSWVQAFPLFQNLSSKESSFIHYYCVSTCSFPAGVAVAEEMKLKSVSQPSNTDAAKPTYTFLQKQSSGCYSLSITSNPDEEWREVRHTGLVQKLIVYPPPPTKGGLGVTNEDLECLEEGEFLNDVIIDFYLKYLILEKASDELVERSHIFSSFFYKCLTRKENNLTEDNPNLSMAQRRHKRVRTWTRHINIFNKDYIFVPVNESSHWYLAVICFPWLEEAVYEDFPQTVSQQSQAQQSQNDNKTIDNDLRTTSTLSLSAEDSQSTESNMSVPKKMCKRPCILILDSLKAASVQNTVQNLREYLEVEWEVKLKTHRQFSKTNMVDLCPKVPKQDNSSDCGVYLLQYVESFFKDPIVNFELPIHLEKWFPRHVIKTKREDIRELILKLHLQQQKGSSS

HT-1080 = assay: HT1080 cell viability loss – fluorescence readout (AID 620); assay type: functional, cell-based; conditions: Homo sapiens
Caspase-3 = molecular target: T5, Caspase-3 (Homo sapiens, UniProt P42574); assay type: functional;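 also: Dose-response selectivity test against caspase-3 for candidate inhibitors of sentrin-specific proteases (SENPs)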
T5 sequence (P42574 whole entry): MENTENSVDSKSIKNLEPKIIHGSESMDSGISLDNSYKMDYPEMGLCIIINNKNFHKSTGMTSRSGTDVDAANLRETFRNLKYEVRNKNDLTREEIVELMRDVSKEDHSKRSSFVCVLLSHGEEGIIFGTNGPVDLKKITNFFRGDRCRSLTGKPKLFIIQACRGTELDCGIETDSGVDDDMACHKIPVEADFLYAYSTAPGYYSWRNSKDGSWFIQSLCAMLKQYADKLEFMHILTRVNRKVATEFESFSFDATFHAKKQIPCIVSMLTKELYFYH

[14] = molecular target: T6, Sentrin-specific protease 6 (Homo sapiens, UniProt Q9GZR1); assay type: functional;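 also: Luminescence-based dose-response confirmatory assay of SENP6 inhibition, following up an ultra-high-throughput screen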
T6 sequence (Q9GZR1 whole entry): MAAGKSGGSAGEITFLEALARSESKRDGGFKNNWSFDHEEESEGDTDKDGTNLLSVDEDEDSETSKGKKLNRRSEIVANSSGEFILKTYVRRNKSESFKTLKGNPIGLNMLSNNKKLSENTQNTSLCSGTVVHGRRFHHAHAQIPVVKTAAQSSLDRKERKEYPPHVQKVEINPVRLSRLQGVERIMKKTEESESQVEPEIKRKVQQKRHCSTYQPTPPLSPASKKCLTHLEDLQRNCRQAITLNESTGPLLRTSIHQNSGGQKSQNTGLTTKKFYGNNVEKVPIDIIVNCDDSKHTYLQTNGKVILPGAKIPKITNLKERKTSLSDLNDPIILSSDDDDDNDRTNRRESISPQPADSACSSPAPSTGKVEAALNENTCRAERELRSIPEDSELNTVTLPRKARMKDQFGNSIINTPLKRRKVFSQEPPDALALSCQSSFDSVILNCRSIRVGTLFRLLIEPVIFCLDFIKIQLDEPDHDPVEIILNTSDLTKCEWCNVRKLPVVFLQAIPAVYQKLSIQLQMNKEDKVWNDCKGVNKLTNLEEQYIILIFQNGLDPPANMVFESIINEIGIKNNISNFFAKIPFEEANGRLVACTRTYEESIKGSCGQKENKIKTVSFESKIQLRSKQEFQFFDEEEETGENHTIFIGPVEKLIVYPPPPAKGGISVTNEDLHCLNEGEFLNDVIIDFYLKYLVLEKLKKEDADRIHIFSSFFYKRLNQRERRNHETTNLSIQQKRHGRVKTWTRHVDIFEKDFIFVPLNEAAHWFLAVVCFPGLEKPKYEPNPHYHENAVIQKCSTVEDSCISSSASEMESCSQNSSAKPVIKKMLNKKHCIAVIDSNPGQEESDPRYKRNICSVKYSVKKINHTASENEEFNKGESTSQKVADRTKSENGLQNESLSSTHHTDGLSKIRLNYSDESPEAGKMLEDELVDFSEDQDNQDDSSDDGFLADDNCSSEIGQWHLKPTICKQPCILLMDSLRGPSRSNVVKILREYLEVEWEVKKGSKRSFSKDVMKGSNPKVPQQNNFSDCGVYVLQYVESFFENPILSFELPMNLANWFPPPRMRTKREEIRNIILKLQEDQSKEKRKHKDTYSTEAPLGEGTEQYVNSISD

[15] = molecular target: Luciferin 4-monooxygenase (Photinus pyralis, UniProt P08659); assay: Counter Screen for Luciferase-based Assay Positives. [Related pubchem assays: 620, 618, 411 ]
[16] = molecular target: T7, Oxysterols receptor LXR-beta (Homo sapiens, UniProt P55055); assay type: functional, cell-based;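 also: Cell-based luminescence dose-response assay of agonist activity at LXR, run as a confirmatory counterscreen to a daf-12 agonist screen; HEK293 cells with Gal4-LXR fusion and GAL4-driven luciferase reporter; agonist potency from rising luciferase signal of a Gal4-LXR reporter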
T7 sequence (P55055 whole entry): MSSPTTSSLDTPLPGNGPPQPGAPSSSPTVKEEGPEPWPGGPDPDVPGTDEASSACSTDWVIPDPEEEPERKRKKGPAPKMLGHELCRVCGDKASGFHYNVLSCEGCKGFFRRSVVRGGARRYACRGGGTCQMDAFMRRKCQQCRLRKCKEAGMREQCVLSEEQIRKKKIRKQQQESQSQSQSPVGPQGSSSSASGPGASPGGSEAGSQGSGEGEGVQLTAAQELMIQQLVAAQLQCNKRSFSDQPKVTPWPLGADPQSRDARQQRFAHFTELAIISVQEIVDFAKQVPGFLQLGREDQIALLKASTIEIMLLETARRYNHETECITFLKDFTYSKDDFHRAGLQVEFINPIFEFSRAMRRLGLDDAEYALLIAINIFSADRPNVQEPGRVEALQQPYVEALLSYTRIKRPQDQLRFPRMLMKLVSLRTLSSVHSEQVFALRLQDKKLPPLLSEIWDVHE

Chain of Luciferin 4-monooxygenase (P08659 whole entry, the tested form may be a part): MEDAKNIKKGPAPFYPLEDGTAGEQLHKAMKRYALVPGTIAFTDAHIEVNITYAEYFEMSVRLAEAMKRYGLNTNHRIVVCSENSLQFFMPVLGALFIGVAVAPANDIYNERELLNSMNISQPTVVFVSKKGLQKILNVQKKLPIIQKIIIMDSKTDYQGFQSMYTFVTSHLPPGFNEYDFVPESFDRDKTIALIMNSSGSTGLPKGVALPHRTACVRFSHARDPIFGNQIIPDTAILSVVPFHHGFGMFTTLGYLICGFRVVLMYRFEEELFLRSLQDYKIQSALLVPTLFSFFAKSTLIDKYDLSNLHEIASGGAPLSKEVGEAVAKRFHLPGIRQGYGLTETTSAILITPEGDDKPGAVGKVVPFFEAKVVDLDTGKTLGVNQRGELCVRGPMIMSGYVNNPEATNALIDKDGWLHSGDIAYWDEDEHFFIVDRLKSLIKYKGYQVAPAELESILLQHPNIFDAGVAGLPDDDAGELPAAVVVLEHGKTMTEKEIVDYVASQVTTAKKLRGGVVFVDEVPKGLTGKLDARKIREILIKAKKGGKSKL
Chain of Paired box protein Pax-8 (Q06710 whole entry): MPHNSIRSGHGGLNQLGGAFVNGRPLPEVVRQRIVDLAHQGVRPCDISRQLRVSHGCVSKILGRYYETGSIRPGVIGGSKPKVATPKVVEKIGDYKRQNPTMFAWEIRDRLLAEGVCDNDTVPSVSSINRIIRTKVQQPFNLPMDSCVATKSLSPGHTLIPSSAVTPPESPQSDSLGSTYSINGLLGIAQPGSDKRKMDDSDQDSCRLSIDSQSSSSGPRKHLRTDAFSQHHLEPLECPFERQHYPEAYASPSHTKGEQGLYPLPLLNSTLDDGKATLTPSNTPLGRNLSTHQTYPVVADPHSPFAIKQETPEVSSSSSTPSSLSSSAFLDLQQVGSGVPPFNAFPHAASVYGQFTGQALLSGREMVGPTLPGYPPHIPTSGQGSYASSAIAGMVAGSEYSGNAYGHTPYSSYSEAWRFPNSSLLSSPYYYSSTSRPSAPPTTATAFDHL
Chain of FAD-linked sulfhydryl oxidase ALR (P55789 whole entry, the tested form may be a part): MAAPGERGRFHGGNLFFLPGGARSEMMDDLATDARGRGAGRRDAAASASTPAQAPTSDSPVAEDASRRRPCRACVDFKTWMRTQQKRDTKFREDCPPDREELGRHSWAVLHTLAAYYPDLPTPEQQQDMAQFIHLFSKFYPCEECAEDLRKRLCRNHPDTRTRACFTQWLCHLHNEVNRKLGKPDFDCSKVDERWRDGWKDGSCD

Nc1ccc(-c2nc3ccc(C(=O)O)cc3s2)cc1
AC50 [1]: 4570 nM (active) | AC50 [2]: 30400 nM (active) | AC50 [3]: 866 nM (active) | AC50 [4]: 749 nM (active) | AC50 [5]: 839 nM (active) | AC50 [6]: 1600 nM (active) | AC50 [7]: 649 nM (active) | AC50 [8]: 1910 nM (active) | IC50 [9]: > 39800 nM (not active) | AC50 (Paired box protein Pax-8): 2600 nM (active) | AC50 (HeLa): 313000 nM (active) | IC50 (Aminopeptidase N): 25700 nM (active) | AC50 [10]: 1030 nM (active) | AC50 [11]: 48600 nM (active)

COc1cc([N+](=O)[O-])ccc1N/C=C/C(=O)c1cccs1
IC50 [12]: 2620 nM (active) | IC50 [13]: 863 nM (active) | EC50 (HT-1080): > 50000 nM (not active) | IC50 (Caspase-3): 1530 nM (active) | IC50 [14]: 1150 nM (active) | EC50 [15]: 4170 nM (active) | EC50 (cells): > 67500 nM (inactive) | EC50 [16]: > 67500 nM (inactive)
